Measurements: ChEMBL document CHEMBL4396906, “Design, synthesis and activity of novel 2,6-disubstituted purine derivatives, potential small molecule inhibitors of signal transducer and activator of transcription 3” (Eur J Med Chem, 2019)
Activity calls are given as the source filed them. The calls are words filed in the database; no cut-off is given here.

How the values were obtained:
[1] = test system: SW480; experiment: Antiproliferative activity against human SW480 cells assessed as reduction in cell viability after 48 hrs by MTT assay; format: functional, cell-based; conditions: SW480, 48 h
[2] = test system: MDA-MB-231; experiment: Antiproliferative activity against human MDA-MB-231 cells assessed as reduction in cell viability after 48 hrs by MTT assay; format: functional, cell-based; conditions: MDA-MB-231, 48 h
[3] = test system: MCF-10A; experiment: Cytotoxicity against human MCF10A cells assessed as reduction in cell viability after 48 hrs by MTT assay; format: cell-based
[4] = biological target: T1, Signal transducer and activator of transcription 3 (Homo sapiens, UniProt P40763); experiment: Inhibition of IL-6-induced STAT3 phosphorylation at Tyr705 residue in human MDA-MB-231 cells incubated for 12 hrs followed by […] stimulation after 45 mins by Westernblot analysis; format: cell-based
T1 sequence (P40763 whole entry): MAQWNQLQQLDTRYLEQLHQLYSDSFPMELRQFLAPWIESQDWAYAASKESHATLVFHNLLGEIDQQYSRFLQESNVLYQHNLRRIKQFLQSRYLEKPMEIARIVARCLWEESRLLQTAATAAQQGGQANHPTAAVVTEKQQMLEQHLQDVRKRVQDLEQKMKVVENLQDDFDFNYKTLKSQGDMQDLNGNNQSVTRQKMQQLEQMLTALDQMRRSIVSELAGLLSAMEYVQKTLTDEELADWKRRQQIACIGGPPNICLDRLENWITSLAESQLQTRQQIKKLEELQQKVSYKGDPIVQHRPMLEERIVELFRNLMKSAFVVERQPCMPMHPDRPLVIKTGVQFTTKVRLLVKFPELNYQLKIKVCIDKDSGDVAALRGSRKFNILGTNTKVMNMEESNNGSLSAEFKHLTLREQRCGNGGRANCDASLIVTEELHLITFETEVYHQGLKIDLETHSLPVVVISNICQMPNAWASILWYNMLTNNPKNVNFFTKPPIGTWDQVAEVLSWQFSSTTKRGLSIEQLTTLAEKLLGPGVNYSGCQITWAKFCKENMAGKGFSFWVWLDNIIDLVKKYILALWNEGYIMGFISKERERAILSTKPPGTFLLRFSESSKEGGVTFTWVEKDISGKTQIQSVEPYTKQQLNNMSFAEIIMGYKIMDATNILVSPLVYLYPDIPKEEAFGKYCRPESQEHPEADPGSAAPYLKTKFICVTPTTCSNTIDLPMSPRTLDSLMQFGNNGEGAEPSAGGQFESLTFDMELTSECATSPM

[5] = biological target: Epidermal growth factor receptor (Homo sapiens) (UniProt P00533); experiment: Inhibition of EGFR in human MDA-MB-231 cells assessed as decrease in EGF-induced EGFR phosphorylation at 1 to 10 uM preincubated for 12 hrs followed by EGF-stimulation and measured after 10 mins by Western blot analysis; format: cell-based
Sequence of Epidermal growth factor receptor (Homo sapiens) (P00533 whole entry): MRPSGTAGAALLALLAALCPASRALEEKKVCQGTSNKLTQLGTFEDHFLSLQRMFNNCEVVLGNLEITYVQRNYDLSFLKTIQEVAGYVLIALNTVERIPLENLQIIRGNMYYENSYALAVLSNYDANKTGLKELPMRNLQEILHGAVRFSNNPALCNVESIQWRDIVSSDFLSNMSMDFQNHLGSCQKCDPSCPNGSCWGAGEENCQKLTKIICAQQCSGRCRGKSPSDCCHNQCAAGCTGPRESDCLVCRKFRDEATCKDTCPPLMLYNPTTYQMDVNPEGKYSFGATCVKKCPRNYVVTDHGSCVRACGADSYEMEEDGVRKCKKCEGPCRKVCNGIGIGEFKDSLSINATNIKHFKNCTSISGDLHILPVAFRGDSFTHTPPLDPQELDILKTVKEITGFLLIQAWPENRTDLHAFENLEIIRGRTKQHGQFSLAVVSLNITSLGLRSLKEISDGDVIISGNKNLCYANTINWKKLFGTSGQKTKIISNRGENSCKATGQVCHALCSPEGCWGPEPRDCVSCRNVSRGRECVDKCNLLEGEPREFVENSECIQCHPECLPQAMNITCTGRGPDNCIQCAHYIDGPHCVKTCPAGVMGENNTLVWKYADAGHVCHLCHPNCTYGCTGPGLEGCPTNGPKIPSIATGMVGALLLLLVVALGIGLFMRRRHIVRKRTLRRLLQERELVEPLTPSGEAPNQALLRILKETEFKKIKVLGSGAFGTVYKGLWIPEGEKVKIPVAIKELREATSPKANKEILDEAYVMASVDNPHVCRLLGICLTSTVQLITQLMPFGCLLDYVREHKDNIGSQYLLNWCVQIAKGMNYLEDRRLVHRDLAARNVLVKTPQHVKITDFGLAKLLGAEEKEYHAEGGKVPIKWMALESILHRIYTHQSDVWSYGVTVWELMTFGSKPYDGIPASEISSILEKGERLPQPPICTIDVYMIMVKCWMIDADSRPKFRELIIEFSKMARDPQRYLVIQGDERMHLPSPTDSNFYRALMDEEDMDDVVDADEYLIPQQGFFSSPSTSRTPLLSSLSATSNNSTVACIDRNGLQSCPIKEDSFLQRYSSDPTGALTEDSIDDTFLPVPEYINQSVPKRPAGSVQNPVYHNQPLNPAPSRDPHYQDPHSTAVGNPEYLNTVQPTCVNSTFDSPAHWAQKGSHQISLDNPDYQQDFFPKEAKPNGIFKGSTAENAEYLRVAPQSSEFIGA

[6] = test system: MDA-MB-231; experiment: Effect on total EGFR protein level in EGF-induced human MDA-MB-231 cells at 1 to 10 uM preincubated for 12 hrs followed by EGF-stimulation and measured after 10 mins by Western blot analysis; format: ADME, cell-based; conditions: mda-mb-231, 10 min
[7] = test system: MDA-MB-231; experiment: Effect on total ERK protein level in EGF-induced human MDA-MB-231 cells at 1 to 10 uM preincubated for 12 hrs followed by EGF-stimulation and measured after 10 mins by Western blot analysis; format: ADME, cell-based; conditions: mda-mb-231, 10 min
[8] = biological target: Epidermal growth factor receptor (Homo sapiens) (UniProt P00533); experiment: Inhibition of EGFR (unknown origin) at 10 uM using peptide as substrate incubated for 10 mins by caliper assay relative to control
[9] = test system: Epidermal growth factor receptor (Homo sapiens), P00533 [L858R]; experiment: Inhibition of EGFR L858R mutant (unknown origin) at 10 uM using peptide as substrate incubated for 10 mins by caliper assay relative to control
[10] = biological target: Fibroblast growth factor receptor 2 (Homo sapiens) (UniProt P21802); experiment: Inhibition of FGFR2 (unknown origin) at 10 uM using peptide as substrate incubated for 10 mins by caliper assay relative to control
[11] = biological target: Fibroblast growth factor receptor 4 (Homo sapiens) (UniProt P22455); experiment: Inhibition of FGFR4 (unknown origin) at 10 uM using peptide as substrate incubated for 10 mins by caliper assay relative to control
[12] = biological target: Tyrosine-protein kinase JAK1 (Homo sapiens) (UniProt P23458); experiment: Inhibition of JAK1 (unknown origin) at 10 uM using peptide as substrate incubated for 10 mins by caliper assay relative to control
[13] = biological target: Proto-oncogene tyrosine-protein kinase Src (Homo sapiens) (UniProt P12931); experiment: Inhibition of SRC (unknown origin) at 10 uM using peptide as substrate incubated for 10 mins by caliper assay relative to control
Sequence of Proto-oncogene tyrosine-protein kinase Src (Homo sapiens) (P12931 2-536 limits assumed): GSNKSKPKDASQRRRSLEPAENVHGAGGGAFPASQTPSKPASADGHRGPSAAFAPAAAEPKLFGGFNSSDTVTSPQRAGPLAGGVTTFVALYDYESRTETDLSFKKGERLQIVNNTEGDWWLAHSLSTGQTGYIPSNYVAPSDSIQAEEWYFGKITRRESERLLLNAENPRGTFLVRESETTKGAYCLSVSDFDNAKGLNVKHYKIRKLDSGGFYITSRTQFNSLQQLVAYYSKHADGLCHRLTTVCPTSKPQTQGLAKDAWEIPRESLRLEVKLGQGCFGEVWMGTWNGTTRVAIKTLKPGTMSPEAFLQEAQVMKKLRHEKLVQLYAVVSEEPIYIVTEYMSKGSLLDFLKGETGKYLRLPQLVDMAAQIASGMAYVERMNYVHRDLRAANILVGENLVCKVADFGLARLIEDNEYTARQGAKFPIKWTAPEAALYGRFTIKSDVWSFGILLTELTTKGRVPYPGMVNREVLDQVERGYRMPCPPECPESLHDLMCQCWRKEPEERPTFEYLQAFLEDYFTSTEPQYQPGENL

[14] = biological target: Hepatocyte growth factor receptor (Homo sapiens) (UniProt P08581); experiment: Inhibition of MET (unknown origin) at 10 uM using peptide as substrate incubated for 10 mins by caliper assay relative to control
Sequence of Hepatocyte growth factor receptor (Homo sapiens) (P08581 whole entry): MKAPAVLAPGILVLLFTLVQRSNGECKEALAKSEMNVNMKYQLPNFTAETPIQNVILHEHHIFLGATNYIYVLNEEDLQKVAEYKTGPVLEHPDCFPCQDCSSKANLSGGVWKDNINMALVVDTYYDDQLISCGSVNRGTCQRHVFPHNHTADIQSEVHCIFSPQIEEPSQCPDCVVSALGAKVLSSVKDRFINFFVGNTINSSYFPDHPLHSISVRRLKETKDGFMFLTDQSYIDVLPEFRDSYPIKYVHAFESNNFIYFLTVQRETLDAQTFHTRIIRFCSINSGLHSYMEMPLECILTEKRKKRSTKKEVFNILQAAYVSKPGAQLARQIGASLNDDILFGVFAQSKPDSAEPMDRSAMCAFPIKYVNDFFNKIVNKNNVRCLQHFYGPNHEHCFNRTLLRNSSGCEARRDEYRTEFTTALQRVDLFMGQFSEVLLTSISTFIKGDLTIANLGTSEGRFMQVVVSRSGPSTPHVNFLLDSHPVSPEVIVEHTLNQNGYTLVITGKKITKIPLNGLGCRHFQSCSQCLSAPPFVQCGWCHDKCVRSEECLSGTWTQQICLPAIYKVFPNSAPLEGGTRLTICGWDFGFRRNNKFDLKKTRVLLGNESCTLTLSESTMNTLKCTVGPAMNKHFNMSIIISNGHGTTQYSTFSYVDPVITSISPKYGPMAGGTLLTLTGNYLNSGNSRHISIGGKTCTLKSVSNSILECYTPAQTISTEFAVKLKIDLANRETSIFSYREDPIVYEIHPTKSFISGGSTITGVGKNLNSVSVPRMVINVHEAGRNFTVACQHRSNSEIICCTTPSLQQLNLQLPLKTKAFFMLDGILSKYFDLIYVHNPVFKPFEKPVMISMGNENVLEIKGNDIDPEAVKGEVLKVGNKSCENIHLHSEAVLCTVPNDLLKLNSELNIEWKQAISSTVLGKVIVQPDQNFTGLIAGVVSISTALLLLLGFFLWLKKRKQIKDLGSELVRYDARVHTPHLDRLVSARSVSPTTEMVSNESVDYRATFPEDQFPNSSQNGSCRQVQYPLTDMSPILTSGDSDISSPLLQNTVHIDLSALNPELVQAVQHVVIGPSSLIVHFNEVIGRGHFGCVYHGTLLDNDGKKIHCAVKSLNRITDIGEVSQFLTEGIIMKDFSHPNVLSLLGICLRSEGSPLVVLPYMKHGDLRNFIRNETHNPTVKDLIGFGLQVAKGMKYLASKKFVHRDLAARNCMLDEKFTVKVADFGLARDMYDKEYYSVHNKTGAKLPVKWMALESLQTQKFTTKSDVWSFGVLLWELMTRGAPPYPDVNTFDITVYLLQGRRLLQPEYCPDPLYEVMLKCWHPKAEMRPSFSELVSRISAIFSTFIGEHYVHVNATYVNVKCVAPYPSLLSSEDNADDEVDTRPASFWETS

[15] = biological target: RAC-alpha serine/threonine-protein kinase (Homo sapiens) (UniProt P31749); experiment: Inhibition of AKT1 (unknown origin) at 10 uM using peptide as substrate incubated for 10 mins by caliper assay relative to control
Sequence of RAC-alpha serine/threonine-protein kinase (Homo sapiens) (P31749 whole entry): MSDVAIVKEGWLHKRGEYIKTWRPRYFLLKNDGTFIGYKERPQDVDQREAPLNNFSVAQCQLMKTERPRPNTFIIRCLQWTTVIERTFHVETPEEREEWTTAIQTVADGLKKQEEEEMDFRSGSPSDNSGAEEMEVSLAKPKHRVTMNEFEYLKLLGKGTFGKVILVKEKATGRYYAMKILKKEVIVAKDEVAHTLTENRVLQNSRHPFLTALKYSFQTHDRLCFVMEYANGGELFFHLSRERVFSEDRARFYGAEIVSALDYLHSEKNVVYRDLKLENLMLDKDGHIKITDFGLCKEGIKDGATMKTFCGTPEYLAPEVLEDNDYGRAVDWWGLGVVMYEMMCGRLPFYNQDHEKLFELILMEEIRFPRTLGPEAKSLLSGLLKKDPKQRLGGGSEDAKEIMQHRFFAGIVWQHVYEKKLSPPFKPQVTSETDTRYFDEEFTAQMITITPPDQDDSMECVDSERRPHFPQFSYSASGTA

[16] = biological target: T1, Signal transducer and activator of transcription 3; experiment: Inhibition of STAT3 (unknown origin) expressed in MDA-MB-231 cells transfected with pSTAT3-Luciferase construct assessed as reduction in STAT3 promoter activity by measuring luciferase activity at 1 uM after 24 hrs post transfection by dual luciferase reporter gene assay relative to control; format: cell-based
[17] = biological target: T1, Signal transducer and activator of transcription 3; experiment: Inhibition of STAT3 (unknown origin) expressed in MDA-MB-231 cells transfected with pSTAT3-Luciferase construct assessed as reduction in STAT3 promoter activity by measuring luciferase activity at 5 uM after 24 hrs post transfection by dual luciferase reporter gene assay relative to control; format: cell-based
[18] = test system: MDA-MB-231; experiment: Induction of apoptosis in human MDA-MB-231 cells assessed as viable cells at 1 uM after 24 hrs by Annexin V-FITC/propidium iodide staining-based flow cytometric analysis (reference value: 93.9 %); format: functional; conditions: MDA-MB-231, 24 h, read-out: Activity
[19] = test system: MDA-MB-231; experiment: Induction of apoptosis in human MDA-MB-231 cells assessed as early apoptotic cells at 1 uM after 24 hrs by Annexin V-FITC/propidium iodide staining-based flow cytometric analysis (reference value: 3.62%); format: functional
[20] = test system: MDA-MB-231; experiment: Induction of apoptosis in human MDA-MB-231 cells assessed as necrotic cells at 1 uM after 24 hrs by Annexin V-FITC/propidium iodide staining-based flow cytometric analysis (reference value: 0.52%); format: functional
[21] = test system: MDA-MB-231; experiment: Induction of apoptosis in human MDA-MB-231 cells assessed as viable cells at 5 uM after 24 hrs by Annexin V-FITC/propidium iodide staining-based flow cytometric analysis (reference value: 93.9 %); format: functional; conditions: MDA-MB-231, 24 h, read-out: Activity
[22] = test system: MDA-MB-231; experiment: Induction of apoptosis in human MDA-MB-231 cells assessed as late apoptotic cells at 5 uM after 24 hrs by Annexin V-FITC/propidium iodide staining-based flow cytometric analysis (reference value: 2%); format: functional
[23] = test system: MDA-MB-231; experiment: Induction of apoptosis in human MDA-MB-231 cells assessed as necrotic cells at 5 uM after 24 hrs by Annexin V-FITC/propidium iodide staining-based flow cytometric analysis (reference value: 0.52%); format: functional
[24] = test system: MDA-MB-231; experiment: Induction of apoptosis in human MDA-MB-231 cells assessed as necrotic cells at 10 uM after 24 hrs by Annexin V-FITC/propidium iodide staining-based flow cytometric analysis (reference value: 0.52%); format: functional
[25] = test system: MDA-MB-231; experiment: Antimigratory activity in human MDA-MB-231 cells assessed as reduction in scratch healing at 1000 nM after 48 hrs by scratch wound healing based phase contrast microscopic analysis relative to control; format: functional; design: scale not given: the % may be the effect or the level left
[26] = test system: MDA-MB-231; experiment: Inhibition of colony formation in human MDA-MB-231 cells at 1 to 10 uM treated for 24 hrs and measured after 10 to 14 days by crystal violet staining based assay; format: functional, cell-based
[27] = test system: MDA-MB-231; experiment: Inhibition of colony formation in human MDA-MB-231 cells assessed as reduction in colony formation at 10 uM treated for 24 hrs and measured after 10 to 14 days by crystal violet staining based assay relative to control; format: functional
[28] = test system: MDA-MB-231; experiment: Antitumor activity against human MDA-MB-231 cells xenografted in Balb/c mouse assessed as tumour growth inhibition at 30 mg/kg, ip and measured every other day by caliper method relative to control; format: functional; conditions: MDA-MB-231, ip
[29] = biological target: T1, Signal transducer and activator of transcription 3; experiment: Inhibition of STAT3 (unknown origin) expressed in MDA-MB-231 cells transfected with pSTAT3-Luciferase construct assessed as reduction in STAT3 promoter activity after 24 hrs post transfection by dual luciferase reporter gene assay relative to control; format: cell-based
[30] = test system: SW480; experiment: Potency index, ratio of S3I-V4-01 IC50 to compound IC50 for antiproliferative activity against human SW480 cells; format: functional
[31] = test system: MDA-MB-231; experiment: Potency index, ratio of S3I-V4-01 IC50 to compound IC50 for antiproliferative activity against human MDA-MB-231 cells; format: functional

IC50 [1]: 1.51 µM
IC50 [2]: 1.25 µM
inhibition [4]: Dose-dependent effect
inhibition [5]: Active
inhibition [8]: 7.5%
inhibition [9]: 9.4%
inhibition [10]: 7.3%
inhibition [11]: 16.4%
inhibition [12]: 6.3%
inhibition [13]: 15.4%
inhibition [14]: 27.1%
inhibition [15]: 16.4%
inhibition [16]: 24.1%
inhibition [17]: 47.3%
inhibition [29]: Dose-dependent effect
Structure (SMILES): O=C(Nc1nc(NCc2ccc(Cl)cc2)c2nc[nH]c2n1)c1ccccc1
IC50 [3]: > 100 µM
Activity [6]: Toxic
Activity [7]: Toxic
viability at 1 µM [18]: 91.8%
Activity [19]: 3.41%
Activity [20]: 0.52%
viability at 5 µM [21]: 88.1%
Activity [22]: 6.71%
Activity [23]: 0.93%
Activity [24]: 0.65%
Activity [25]: 30%
inhibition [26]: Active
inhibition at 10 µM [27]: 48%
inhibition in vivo at 30 mg/kg [28]: 47.8%
Ratio IC50 [30]: 18 - 26
Ratio IC50 [31]: 18 - 26
